After the bases stand the sugars from the 5' end (letter, count) and the backbone: PS all phosphorothioate, else s phosphorothioate and o phosphodiester by linkage. Methylation of C is not given here. l = locked nucleic acid (LNA); d = 2'-deoxy (DNA)

In the OligoGym collection one finds target mRNA inhibition data, which are given here for 53 sequences.

The target in this data set is SNHG14. The following applies: ASO.
Where [1] appears, read: Mouse Primary Neuronal Cell, 0.005 µM.

As for “TACCTACATCTCATACT (sugars l2 d13 l2, PS)”, the target mRNA inhibition by setting is: (Human Neuronal Cell, 0.2 µM) -1%; (Human Neuronal Cell, 1 µM) 0%; (Human Neuronal Cell, 5 µM) 11%; under setting [1], 78.6%.

With “GATCATTCTCAACAATTAA (sugars lddlldddddddlddllll, PS)”, the target mRNA inhibition (Human Neuronal Cell, 7.5 µM) was found to be 55%. “TTTCCATTTATTTCCATTT (sugars lldlddddddddddlldll, PS)”: the target mRNA inhibition (Human Neuronal Cell, 7.5 µM) was 53%.

“TATTGATTCAATTCCCT (sugars lldldddddddddldll, PS)”: under “Human Neuronal Cell, 7.5 µM”, the target mRNA inhibition is 69%. As for “TTATAGCCATTCTATCT (sugars l1 d1 l1 d10 l4, PS)”, the target mRNA inhibition (Human Neuronal Cell, 7.5 µM) was 55%. Same read-out and setting: next, “AGCAACATTATTAACCAC (sugars l2 d10 l2 d1 l3, PS)”: 44%; “AAAATCTCAACTACCATTT (sugars lldldlddddddddlllll, PS)”: 41%. Take “CCTACATCTCATACTTGC (sugars l2 d14 l2, PS)”: the target mRNA inhibition by setting is: (Human Neuronal Cell, 0.2 µM) 4%; (Human Neuronal Cell, 1 µM) 21%; (Human Neuronal Cell, 5 µM) 25%; under setting [1], 92.2%.

Regarding TTTACTGTCAACTCCT (sugars l2 d10 l4, PS), the target mRNA inhibition (Human Neuronal Cell, 0.2 µM) worked out at 51% and the target mRNA inhibition (Human Neuronal Cell, 1 µM) is 57%. “TTCTGTATACACCATCC (sugars lddldddddddddldll, PS)”: the target mRNA inhibition (Human Neuronal Cell, 7.5 µM) came to 57%.

As for TCATCCCTCCAAGAAA (sugars l4 d10 l2, PS), the target mRNA inhibition reads like this: (Human Neuronal Cell, 0.2 µM) -12%; (Human Neuronal Cell, 1 µM) -17%; (Human Neuronal Cell, 5 µM) -46%.

On to “TAAAATTATTTATACACCAT (sugars ldddlllddddddllldlll, PS)”, for which the target mRNA inhibition (Human Neuronal Cell, 7.5 µM) was 34%. On the same count and under the same terms, to “GTTTCCATCTACTATTAA (sugars llldldddddddllddll, PS)” belongs 28%. The same measure, in the same setting: to “CAAAGATCATTCTCAACA (sugars l3 d1 l2 d10 l2, PS)” belongs 61%.

On to “TATTCTTACCGTCTTTA (sugars l3 d11 l3, PS)”, for which the target mRNA inhibition (Human Neuronal Cell, 0.2 µM) stood at 40% and the target mRNA inhibition (Human Neuronal Cell, 1 µM) was determined as 63%. Consider “TGAAAATCTCAACTACCAT (sugars l1 d3 l2 d10 l3, PS)”, for which the target mRNA inhibition (Human Neuronal Cell, 7.5 µM) was found to be 43%. Same read-out and setting: next, “GATCATTCTCAACAATT (sugars l5 d7 l1 d2 l2, PS)”: 34%. As for CAACATTATTGACACT (sugars l2 d10 l4, PS), the target mRNA inhibition runs as follows: (Human Neuronal Cell, 0.2 µM) 45%; (Human Neuronal Cell, 1 µM) 61%. For “AAGATCATTCTCAACAAT (sugars l2 d1 l3 d8 l4, PS)”, the target mRNA inhibition (Human Neuronal Cell, 7.5 µM) stood at 44%.

On to “TTTATACCTTTCTTTAACCC (sugars l2 d1 l1 d14 l2, PS)”, for which the target mRNA inhibition (Human Neuronal Cell, 7.5 µM) was 50%. As to “CATCTGCTACATATTCT (sugars l4 d11 l2, PS)”, the target mRNA inhibition turned out to be 53% (Human Neuronal Cell, 0.2 µM) and 62% (Human Neuronal Cell, 1 µM).

Regarding “GTTTCCATCTACTATTA (sugars l2 d11 l4, PS)”, the target mRNA inhibition came out at 60% (Human Neuronal Cell, 0.2 µM) and 75% (Human Neuronal Cell, 1 µM). For CCAGACTCCAATATTT (sugars l4 d10 l2, PS), the target mRNA inhibition reads like this: (Human Neuronal Cell, 0.2 µM) 55%; (Human Neuronal Cell, 1 µM) 39%. For “TTATAGCCATTCTATCT (sugars lllddddddddldldll, PS)”, the target mRNA inhibition (Human Neuronal Cell, 7.5 µM) is 44%. With ACATCTCATACTTGCT (sugars l2 d11 l3, PS), the target mRNA inhibition under setting [1] amounted to 96.3%. As to TTCAAGAATTCTCTCC (sugars l2 d10 l4, PS), the target mRNA inhibition (Human Neuronal Cell, 0.2 µM) is 46% and the target mRNA inhibition (Human Neuronal Cell, 1 µM) is 50%. Turning to “AGATCATTCTCAACAATTA (sugars ldddllddddddldlddll, PS)”, the target mRNA inhibition (Human Neuronal Cell, 7.5 µM) amounted to 62%. Still for that read-out and setting: next, “TACTCTGCAATACACCA (sugars l2 d10 l2 d1 l2, PS)”: 60%.

For the sequence CAGCTATTCAATAAAC (sugars l4 d10 l2, PS), the target mRNA inhibition turned out to be 8% (Human Neuronal Cell, 0.2 µM) and 7% (Human Neuronal Cell, 1 µM). For “ATACCTTTCTTTAACCC (sugars l4 d11 l2, PS)”, the target mRNA inhibition (Human Neuronal Cell, 0.2 µM) turned out to be 60% and the target mRNA inhibition (Human Neuronal Cell, 1 µM) was determined as 67%.

Take “TTGATTCAATTCCCTTA (sugars l2 d9 l1 d3 l2, PS)”: where the note is “Human Neuronal Cell, 7.5 µM”, the target mRNA inhibition stood at 60%. For CTCCAACATAGATCCT (sugars l3 d10 l3, PS), the target mRNA inhibition (Human Neuronal Cell, 0.2 µM) was 44% and the target mRNA inhibition (Human Neuronal Cell, 1 µM) turned out to be 54%. Regarding “TTTTTTCTTACTATCTTCAA (sugars llldddlddddddddlddll, PS)”, under “Human Neuronal Cell, 7.5 µM”, the target mRNA inhibition was 58%. Turning to “GTTCTACTATACTTTCCT (sugars lddldddddddddlddll, PS)”, under “Human Neuronal Cell, 7.5 µM”, the target mRNA inhibition turned out to be 58%. Same read-out and setting: next, “ATCTCATGACCACCTAA (sugars ldlddddddddlddlll, PS)”: 52%; “CAAAGATCATTCTCAACA (sugars l1 d4 l1 d7 l5, PS)”: 65%. “CCAAACTGTCTTCTAAT (sugars l2 d11 l4, PS)”: the target mRNA inhibition reads like this: (Human Neuronal Cell, 0.2 µM) 23%; (Human Neuronal Cell, 1 µM) 26%.

Consider TAATCCTATTCCAACT (sugars l3 d10 l3, PS), for which the target mRNA inhibition by setting is: (Human Neuronal Cell, 0.2 µM) 16%; (Human Neuronal Cell, 1 µM) 17%. For “AGCTTTTAACCAGAGTGG (sugars l1 d14 l3, PS)”, the target mRNA inhibition (Human Neuronal Cell, 7.5 µM) was 66%. Take “CTCATACTTGCTTTAAT (sugars l4 d11 l2, PS)”: the target mRNA inhibition is 7% (Human Neuronal Cell, 0.2 µM); 13% (Human Neuronal Cell, 1 µM); 26% (Human Neuronal Cell, 5 µM); 96.4% under setting [1]. Consider ATCCAAAGTTTCTTTC (sugars l4 d10 l2, PS), for which the target mRNA inhibition runs as follows: (Human Neuronal Cell, 0.2 µM) 43%; (Human Neuronal Cell, 1 µM) 34%.

GTACTTACACATCTAT (sugars l2 d10 l4, PS): the target mRNA inhibition (Human Neuronal Cell, 0.2 µM) was 45% and the target mRNA inhibition (Human Neuronal Cell, 1 µM) came to 26%. As for CACCTGATAACAGACC (sugars l3 d10 l3, PS), the target mRNA inhibition is, setting by setting: (Human Neuronal Cell, 0.2 µM) -22%; (Human Neuronal Cell, 1 µM) 7%; (Human Neuronal Cell, 5 µM) 27%. Regarding “TCTCCAACATAGATCCT (sugars l4 d11 l2, PS)”, the target mRNA inhibition worked out at 33% (Human Neuronal Cell, 0.2 µM) and 46% (Human Neuronal Cell, 1 µM). The like results for “TTTCCATTTATTTCCATTT (sugars l4 d13 l2, PS)” were, in that order, 47% and 56%. For “ATCATTCTCAACAATTAA (sugars l5 d8 l1 d1 l3, PS)”, the target mRNA inhibition (Human Neuronal Cell, 7.5 µM) was determined as 59%. On the same count and under the same terms, to “TTATAGCCATTCTATCT (sugars l3 d10 l1 d1 l2, PS)” belongs 59%. As for GTTCTACTATACTTTC (sugars l4 d10 l2, PS), the target mRNA inhibition by setting is: (Human Neuronal Cell, 0.2 µM) 61%; (Human Neuronal Cell, 1 µM) 66%. For the sequence “TGTTTATACCCTTTCCAA (sugars l1 d12 l2 d1 l2, PS)”, the target mRNA inhibition (Human Neuronal Cell, 7.5 µM) turned out to be 58%. As for “TCTCAAAGATCATTCTC (sugars l3 d11 l3, PS)”, the target mRNA inhibition stood at 57% (Human Neuronal Cell, 0.2 µM) and 63% (Human Neuronal Cell, 1 µM). For the sequence “ATTTTTTTCTTACTATCTTC (sugars ldlddldddddddddddlll, PS)”, the target mRNA inhibition (Human Neuronal Cell, 7.5 µM) stood at 56%. Still for that read-out and setting: next, “TTCCATTTATTTCCATTTAT (sugars ldddlddddddddddlldll, PS)”: 55%; “CAACATTATTAACCACCTT (sugars lldlldddddddddldlll, PS)”: 49%.
